Data: EPA's ToxRefDB 2

Columns and labels:
rat [1] = settings: Subchronic oral toxicity in rodents, Gavage/Intubation, dose end: 91 day, group: systemic
dog [2] = settings: Subchronic oral toxicity in nonrodent, beagle, Gavage/Intubation, dose end: 91 day, group: systemic, systemic / pathology microscopic / brain / necrosis
rat [3] = settings: Sub-acute repeat dose toxicity, Oral, Gavage/Intubation, dose end: 12 day
primate = settings: Sub-acute repeat dose toxicity, Oral, Gavage/Intubation, dose end: 14 day, group: systemic
dog [4] = settings: Subchronic oral toxicity in nonrodent, beagle, Gavage/Intubation, dose end: 91 day, group: systemic
dog [5] = settings: Sub-acute repeat dose toxicity, beagle, Oral, Gavage/Intubation, dose end: 14 day, group: systemic
mouse = settings: Subchronic oral toxicity in rodents, Gavage/Intubation, dose end: 91 day, group: systemic
dog [6] = settings: Sub-acute repeat dose toxicity; beagle; Oral; Gavage/Intubation; dose end: 14 day; group: systemic; systemic / clinical chemistry / [other] / [other] + systemic / clinical chemistry / cytochrome p450, nos / cytochrome p450, nos + systemic…
rat [7] = settings: Sub-acute repeat dose toxicity, Oral, Gavage/Intubation, dose end: 36 day
rat [8] = settings: Prenatal developmental toxicity study, wistar, Dermal, Topical, dose end: 19 GD
rat [9] = settings: Subchronic oral toxicity in rodents, wistar, Feed, dose end: 90 day, group: systemic, systemic / pathology gross / adrenal gland / discolored + systemic / pathology gross / adrenal gland / enlarged + systemic / pathology …
rat [10] = settings: Multigenerational reproductive toxicity study, wistar, Oral, Feed, dose end: 2 generation
rat [11] = settings: Peri- and post-natal toxicity study (Segment III), sprague dawley, Oral, Gavage/Intubation, dose end: 54 PND
rat [12] = settings: Multigenerational reproductive toxicity study, sprague dawley, Oral, Feed, dose end: 2 generation
[13] = systemic / clinical chemistry / [other] / [other] + systemic / clinical chemistry / cytochrome p450, nos / cytochrome p450, nos + systemic…
[14] = systemic / in life observation / food consumption / food consumption + systemic / pathology microscopic / kidney / dilatation + systemic / …
[15] = group: maternal, reproductive / offspring survival early / litter size / litter size + reproductive / reproductive performance / postimplantation loss / …
[16] = group: systemic, systemic / in life observation / body weight / body weight gain + systemic / in life observation / clinical signs / emaciation + systemic / …
[17] = systemic / hematology / erythrocyte (rbc) count differential / erythrocyte (rbc) + systemic / hematology / hematocrit (hct) / hematocrit (…
[18] = systemic / in life observation / body weight / body weight + systemic / in life observation / clinical signs / [other] + systemic / in life …
[19] = systemic / clinical chemistry / alkaline phosphatase (alp/alk) / alkaline phosphatase (alp/alk) + systemic / clinical chemistry / protein / …
[20] = systemic / pathology microscopic / liver / hypertrophy + systemic / pathology microscopic / brain / infiltration cellular + systemic / …
[21] = systemic / clinical chemistry / [other] / [other] + systemic / clinical chemistry / creatinine / creatinine + systemic / clinical chemistry…
[22] = systemic / in life observation / clinical signs / abnormal feces + systemic / in life observation / food consumption / food consumption + …
[23] = systemic / clinical chemistry / [other] / [other] + systemic / hematology / leukocyte (wbc) count differential / leukocyte (wbc) + systemic…
[24] = group: maternal, reproductive / offspring survival early / dead fetuses / dead fetuses + reproductive / offspring survival early / litter viability other / …
[25] = group: maternal, reproductive / offspring survival early / dead fetuses / dead fetuses + reproductive / reproductive performance / gestational length / …
[26] = group: systemic, systemic / in life observation / body weight / body weight gain + systemic / in life observation / body weight / offspring (pup) weight + …
[27] = group: systemic, systemic / in life observation / clinical signs / [other] + systemic / in life observation / clinical signs / body cold to touch + systemic…
[28] = group: developmental, developmental / developmental landmark / anogenital distance (agd) / anogenital distance (agd)
[29] = group: developmental, developmental / developmental landmark / anogenital distance (agd) / anogenital distance (agd) + developmental / developmental malformation…
[30] = group: maternal, systemic / organ weight / adrenal gland / absolute
[31] = group: maternal, systemic / organ weight / adrenal gland / absolute + systemic / organ weight / liver / absolute
[32] = group: offspring, systemic / organ weight / adrenal gland / absolute + systemic / organ weight / liver / absolute
[33] = group: parental, systemic / organ weight / epididymis / absolute
[34] = group: reproductive, reproductive / reproductive performance / fertility / fertility
[35] = group: reproductive, reproductive / reproductive performance / fertility / fertility + reproductive / offspring survival early / birth index / live birth index
[36] = group: developmental, developmental / developmental landmark / preputial separation / preputial separation
[37] = group: parental, systemic / organ weight / [other] / absolute + systemic / organ weight / adrenal gland / absolute + systemic / organ weight / prostate / …
[38] = group: parental, systemic / pathology gross / kidney / dilatation
[39] = group: offspring, developmental / developmental landmark / nipple development / nipple development + developmental / developmental landmark / preputial …
[40] = group: parental, systemic / organ weight / epididymis / absolute + systemic / organ weight / epididymis / relative to body weight + systemic / organ weight…

## CC(C)(C)c1cc(/C=C2\SC(N)=NC2=O)cc(C(C)(C)C)c1O.CS(=O)(=O)O [Darbufelone mesylate]
Rat [1]; [13]
  LOAEL: > 75 mg/kg/day
  NOAEL: ≥ 75 mg/kg/day
Rat [1]; [14]
  LEL: 10 mg/kg/day
  NEL: < 10 mg/kg/day
Dog [2]
  LEL: 2 mg/kg/day
  NEL: < 2 mg/kg/day
Rat [3]; [15]
  LEL: 75 mg/kg/day
  LOAEL: > 75 mg/kg/day
  NEL: 50 mg/kg/day
  NOAEL: ≥ 75 mg/kg/day
Rat [3]; [16]
  LOAEL: > 75 mg/kg/day
  NEL: 10 mg/kg/day
  NOAEL: ≥ 75 mg/kg/day
primate; [17]
  LOAEL: > 1000 mg/kg/day
  NOAEL: ≥ 1000 mg/kg/day
primate; [18]
  LEL: 100 mg/kg/day
  NEL: < 100 mg/kg/day
Dog [4]; [19]
  LOAEL: > 10 mg/kg/day
  NOAEL: ≥ 10 mg/kg/day
Dog [4]; [20]
  LEL: 2 mg/kg/day
  NEL: < 2 mg/kg/day
Dog [5]; [21]
  LOAEL: > 200 mg/kg/day
  NOAEL: ≥ 200 mg/kg/day
Dog [5]; [22]
  LEL: 10 mg/kg/day
  NEL: < 10 mg/kg/day
mouse; [23]
  LOAEL: > 300 mg/kg/day
  NOAEL: ≥ 300 mg/kg/day
mouse; systemic / clinical chemistry / protein / protein
  NEL: < 35 mg/kg/day
Dog [6]
  LEL: 2 mg/kg/day
  LOAEL: > 5 mg/kg/day
  NEL: < 2 mg/kg/day
  NOAEL: ≥ 5 mg/kg/day
Rat [7]; [24]
  LOAEL: > 25 mg/kg/day
  NOAEL: ≥ 25 mg/kg/day
Rat [7]; [25]
  LEL: 5 mg/kg/day
  NEL: < 5 mg/kg/day
Rat [7]; [26]
  LOAEL: > 25 mg/kg/day
  NOAEL: ≥ 25 mg/kg/day
Rat [7]; [27]
  LEL: 5 mg/kg/day
  NEL: < 5 mg/kg/day

## C=CC1(C)OC(=O)N(c2cc(Cl)cc(Cl)c2)C1=O (centres undefined) [Vinclozolin]
Rat [8]; [28]
  LEL: 180 mg/kg/day
  LOAEL: 180 mg/kg/day
Rat [8]; [29]
  NEL: 60 mg/kg/day
  NOAEL: 60 mg/kg/day
Rat [8]; [30]
  LEL: 180 mg/kg/day
  LOAEL: 180 mg/kg/day
Rat [8]; [31]
  NEL: 60 mg/kg/day
  NOAEL: 60 mg/kg/day
Rat [9]
  LEL: 24 mg/kg/day
  LOAEL: 24 mg/kg/day
  NEL: 4.4 mg/kg/day
  NOAEL: 4.4 mg/kg/day
Rat [10]; [32]
  LEL: 30 mg/kg/day
  LOAEL: 30 mg/kg/day
  NEL: 4.9 mg/kg/day
  NOAEL: 4.9 mg/kg/day
Rat [10]; [33]
  LEL: 4.9 mg/kg/day
  LOAEL: 4.9 mg/kg/day
  NEL: < 4.9 mg/kg/day
  NOAEL: < 4.9 mg/kg/day
Rat [10]; [34]
  NEL: 101 mg/kg/day
Rat [10]; [35]
  LEL: 290 mg/kg/day
  LOAEL: > 290 mg/kg/day
  NOAEL: ≥ 290 mg/kg/day
Rat [11]; [36]
  LEL: 10 mg/kg/day
  LOAEL: > 100 mg/kg/day
  NEL: < 10 mg/kg/day
  NOAEL: ≥ 100 mg/kg/day
Rat [11]; [37]
  LOAEL: > 100 mg/kg/day
  NOAEL: ≥ 100 mg/kg/day
Rat [11]; [38]
  LEL: 10 mg/kg/day
  NEL: < 10 mg/kg/day
Rat [12]; [39]
  LEL: 14.8 mg/kg/day
  LOAEL: 14.8 mg/kg/day
  NEL: 3 mg/kg/day
  NOAEL: 3 mg/kg/day
Rat [12]; [40]
  LOAEL: 14.8 mg/kg/day
  NOAEL: 3 mg/kg/day
Rat [12]; group: parental, systemic / pathology microscopic / adrenal gland / [other] + systemic / pathology microscopic / liver / hypertrophy
  LEL: 11.5 mg/kg/day
Rat [12]; group: parental, systemic / pathology microscopic / adrenal gland / [other] + systemic / pathology microscopic / liver / hypertrophy + systemic / clinical …
  NEL: 2.34 mg/kg/day
Rat [12]; [34]
  LEL: 74.7 mg/kg/day
  LOAEL: > 74.7 mg/kg/day
  NEL: 14.8 mg/kg/day
  NOAEL: ≥ 74.7 mg/kg/day
